Reference: patent publication US20110207944A1, “VITAMIN D3 LACTAM DERIVATIVE” (TEIJIN PHARMA LIMITED, priority 2008, published 2011)

What was measured:
HL-60 cells = experiment: Vitamin D3 receptor-antagonist effect: inhibition of 1α,25-dihydroxyvitamin D3-induced differentiation of HL-60 (NBT reduction activity); type: cell-based; conditions: Homo sapiens, 96 h; NBT-positive HL-60 cells, co-treatment with 1α,25-dihydroxyvitamin D3 1×10^−8 M, 4 days
Source text: Vitamin D3 Receptor-Antagonist Effect in Terms of Cellular Differentiation-Inducing Activity of 1α,25-dihydroxyvitamin D3 in HL-60 as a Marker
(1) A HL-60 cell line purchased from a cell bank (Japanese Cancer Research Resource Bank, Cell number: JCRB0085) was used. The cells were frozen for storage as a frozen storage stock to prevent cell characteristic changes due to successive cultivations. The cells were defrosted prior to the initiation of the experiment, and those which started successive culturing were used in the experiment. Cells subcultured for one month to a half year were used for the experiment. The successive culturing was carried out by diluting the cells at a ratio of about 1/100 (1-2×10^4 cells/mL) in a fresh medium after the collection of cells from a cell suspension by centrifugation. RPMI-1640 supplemented with 10% fetal bovine serum was used as the culture medium.
(2) The subcultured cells by the procedure described in (1) were collected by centrifugation and re-suspended in the medium at 5×10^3 cells/mL, and the cells were plated into a 24-well culture dish at 1 mL/well. To this system, a solution of 1α,25-dihydroxyvitamin D3 at a concentration of 1×10^−5 M and the compounds of the present invention in a range of […] to 3×10^−3 M in ethanol, respectively, were added at 1 μL per well (the final concentration: 1×10^−8 M for 1α,25-dihydroxyvitamin D3, and 1×10^−9 M to 3×10^−6 M for the compounds of the present invention). Ethanol was added at 1 μL per well as a control. After the plate was incubated at 37° C. for 4 days in the presence of 5% CO2, the cells were separated and collected by centrifugation.
(3) The induction of nitroblue tetrazolium (hereinafter NBT) reduction activity was used as a marker for cell differentiation-inducing activity of HL-60 cells. The measurement of NBT reduction activity was carried out according to the following procedure. Specifically, cells collected by centrifugation were re-suspended in a fresh medium. Then 0.1% of NBT and 12-O-tetradecanoylphorbor-13-acetate at a final concentration of 100 ng/mL were added to the cell suspension and the mixture was incubated at 37° C. for 25 minutes. Then the cytospin smears were prepared and stained with Kernechtrot after air-drying. The ratio of positive cells expressing NBT reduction activity was determined under optical microscopy. Percentage ratios of the ratio of NBT-positive cells in a simultaneous treatment with 1α,25-dihydroxyvitamin D3 (1×10^−8 M) and a compound of the present invention (1×10^−9M and 3×10^−6 M) over the ratio of the NBT-positive cells in a single treatment with 1α,25-dihydroxyvitamin D3 (1×10^−8 M) were plotted against the treating concentration of the compounds of the present invention. […]

human VDR = molecular target: T1, human VDR (Homo sapiens, UniProt P11473); experiment: Vitamin D3 receptor-antagonist activity: human osteocalcin promoter luciferase reporter in HOS cells transfected with human VDR and human RXR; type: cell-based; conditions: for Antagonist specific activity against TEI-9647 (%): IC50 of test compound with respect to IC50 of TEI-9647 in each experiment; for IC50: luciferase activity in HOS cells, with 1α,25-dihydroxyvitamin D3 1×10^−8 M, 24 hours
T1 construct: expressed in transfected cells; host or cells: HOS cells (human osteosarcoma, ATCC), pcDNA3 expression vector, Lipofectamine 2000
T1 sequence (P11473 1-427): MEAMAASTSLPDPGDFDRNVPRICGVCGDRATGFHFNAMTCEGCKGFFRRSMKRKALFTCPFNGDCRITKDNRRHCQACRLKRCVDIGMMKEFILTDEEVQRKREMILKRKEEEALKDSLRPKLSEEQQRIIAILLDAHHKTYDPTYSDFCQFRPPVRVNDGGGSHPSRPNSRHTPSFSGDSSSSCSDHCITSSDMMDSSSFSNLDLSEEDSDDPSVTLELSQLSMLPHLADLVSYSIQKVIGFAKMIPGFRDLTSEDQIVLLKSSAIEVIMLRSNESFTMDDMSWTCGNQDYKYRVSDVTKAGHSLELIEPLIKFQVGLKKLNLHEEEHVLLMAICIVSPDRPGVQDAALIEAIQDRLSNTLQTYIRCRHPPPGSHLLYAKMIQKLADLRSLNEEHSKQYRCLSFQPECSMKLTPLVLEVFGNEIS
Source text: Vitamin D3 Receptor-Antagonist Activity in Terms of the Transcription Activity in Human Osteocalcin by 1α,25-dihydroxyvitamin D3 as a Marker
(1) A pGL3 vector (Promega Corp.) was used as a reporter vector. The promoter sequence of the human osteocalcin gene, which was obtained by a known method (Ozono et al., J. Biol. Chem., 265:21881-21888, 1990), was cloned from cDNA acquired from HOS cells (obtained from ATCC) and inserted into the upstream of the luciferase gene on the reporter vector. An expression vector was constructed by inserting a DNA sequence encoding human VDR and human RXR into a pcDNA3 vector (Invitrogen Corp). The HOS cells were incubated in a DMEM medium supplemented with 10% FBS at 37° C. in the presence of 5% CO2, and subcultivated every 2 or 3 days.
(2) Cells being subcultivated were collected by centrifugation and re-suspended in a serum and phenol red-free DMEM medium at 4×10^5 cells/mL. The re-suspension of cells was plated in a 96 well plate at 0.1 mL/well. In this system, various vectors described in (1) were added at 0.05 mL/well with Lipofectamin 2000 (Invitrogen Corp.). After the incubation for 3 hours at 37° C., 1α,25-dihydroxyvitamin D3 and the compounds of the present invention in various concentrations or TEI-9647 (note) as a control (the final concentration: 1×10^−8 M for 1α,25-dihydroxyvitamin D3, and 1×10^−6M and 1×10^−12M for the compounds of the present invention and TEI-9647) were added to each well. After incubation at 37° C. for 24 hours, the medium was removed, the cells were washed with PBS(−) once, and measured for the luciferase activity using a Dual Glo-Luciferase Assay kit (Promega Corp.) by luminometer (Berthold Corp.). The resulting luciferase values were plotted against the concentration of the test compounds and IC50 was determined as the concentration of the test compound at which the luciferase value was inhibited by 50%. Furthermore, to compare the intensities of activity among experiments, the IC50 value of the test compounds with respect to the IC50 value of […] in each experiment was calculated as the antagonist specific activity (%) against TEI-9647.

[1] = molecular target: T2, intracellular 1α,25-dihydroxyvitamin D3 receptor protein in chick intestinal mucous membrane (Gallus gallus, UniProt O42392); experiment: Binding affinity to intracellular vitamin D3 receptor (VDR) in chick intestinal mucous membrane, [3H]1α,25-dihydroxyvitamin D3 competition; conditions: ratio of IC50 relative to IC50 of 1α,25-dihydroxyvitamin D3, 25° C., 1 hour
T2 construct: The intracellular 1α,25-dihydroxyvitamin D3 receptor protein in chick intestinal mucous membrane (0.2 mg); from tissue; host or cells: chick intestinal mucous membrane
T2 sequence (O42392 1-451): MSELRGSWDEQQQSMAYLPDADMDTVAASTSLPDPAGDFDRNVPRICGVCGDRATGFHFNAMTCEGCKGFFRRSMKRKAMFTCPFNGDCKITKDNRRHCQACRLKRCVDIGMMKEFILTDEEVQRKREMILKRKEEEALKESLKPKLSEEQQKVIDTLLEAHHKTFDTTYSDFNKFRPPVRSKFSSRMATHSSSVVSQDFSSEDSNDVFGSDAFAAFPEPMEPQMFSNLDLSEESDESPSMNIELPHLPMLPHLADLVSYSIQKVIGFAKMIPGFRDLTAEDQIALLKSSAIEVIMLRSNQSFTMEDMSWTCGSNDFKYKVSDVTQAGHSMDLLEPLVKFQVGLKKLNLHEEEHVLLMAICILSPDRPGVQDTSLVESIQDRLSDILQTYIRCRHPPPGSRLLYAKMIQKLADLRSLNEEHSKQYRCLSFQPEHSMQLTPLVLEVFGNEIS
Method: Binding Affinity to Intracellular Vitamin D3 Receptor (VDR) in Chick Intestinal Mucous Membrane
This binding affinity was assayed according to the method described by Ishizuka, et al. (Steroids, 37:33-43, 1982). Specifically, a solution of [26, 27-methyl-^3H]1α,25-dihydroxyvitamin D3 (15,000 dpm, 180 Ci/mmol) in ethanol (10 μL) and a solution of various concentrations of the compounds of the present invention in ethanol (40 μL) were added into a polypropylene tube (12×75 mm). The intracellular 1α,25-dihydroxyvitamin D3 receptor protein in chick intestinal mucous membrane (0.2 mg) and gelatin (1 mg) were dissolved in 1 mL of phosphate buffer (pH 7.4), the solution was added into the tube, and the mixture was allowed to react at 25° C. for 1 hour. To the tube, a 40% polyethylene glycol 6000 solution (1 mL) was added and the mixture was vigorously stirred. Then the tube was centrifuged at 2260×g at 4° C. for 60 minutes. The bottom of the tube containing precipitate was cut off by a cutter knife and was placed in a liquid scintillation vial, dioxane scintillator (10 mL) was added thereto and the radioactivity of the precipitate was measured by a liquid scintillation counter. The measured values were plotted against the concentration of the test compounds, and IC50 (the concentration of the test compounds at which binding to the receptor was inhibited by 50%) was determined. The ratios of the IC50 of the compounds of the present invention over the IC50 of 1α,25-dihydroxyvitamin D3 were calculated as the VDR affinity of the compounds of the present invention (%).

[2] = molecular target: T3, Human Vitamin D3 Receptor (VDR) (Homo sapiens, UniProt P11473); experiment: Binding affinity to human vitamin D3 receptor (Polarscreen Vitamin D Receptor Competitor assay, Red; fluorescence polarization); conditions: ratio of IC50 relative to IC50 of 1α,25-dihydroxyvitamin D3
T3 construct: purchased Invitrogen Corporation
T3 sequence (P11473 1-427): T1 sequence (P11473 1-427)
Method: Binding Affinity to Human Vitamin D3 Receptor (VDR) This binding affinity was assessed by a VDR affinity measurement kit (Polarscreen™ Vitamin D Receptor Competitor assay, Red; Invitrogen Corporation). The compounds of the present invention or 1α,25-dihydroxyvitamin D3 at various concentrations in DTT-containing buffer (pH 7.5) were mixed with fluorescence-labeled VDR ligand-human VTR complex in DTT-containing buffer (pH 7.5). The degree of polarization of the resulting solution was measured after the incubation of the solution at room temperature. The polarization values were plotted against the concentration of the test compounds, IC50 (the concentration of the test compounds at which the polarized value is reduced to 50%) was determined.

IC50 (HL-60 cells) [nM]	Antagonist specific activity against TEI-9647 (%) (human VDR)	IC50 (human VDR) [nM]	VDR affinity (%) [1] [%]	VDR affinity (%) [2] [%]	SMILES
10	143.1	17.4	222		C=C1/C(=C\C=C2/CCC[C@]3(C)[C@@H]([C@H](C)C[C@H]4C[C@](C)(O)C(=O)N4CCc4ccccc4)CC[C@@H]23)C[C@@H](O)[C@H](CCCO)[C@@H]1O [Compound No. 12a, 2α-(3-hydroxypropyl)-1α,25-dihydroxyvitamin D3-26,23-lactam-N-(2-phenethyl)]
170					C=C1/C(=C\C=C2/CCC[C@]3(C)[C@@H]([C@H](C)CC4CC(C)(O)C(=O)N4CCc4ccccc4)CC[C@@H]23)C[C@@H](O)[C@H](CCCO)[C@@H]1O (stereo partly drawn) [Compound No. 12b, 2α-(3-hydroxypropyl)-1α,25-dihydroxyvitamin D3-26,23-lactam-N-(2-phenethyl)]
	6.1	75			C=C1/C(=C\C=C2/CCC[C@@]3(C)C2CC[C@@H]3[C@H](C)CC2CC(C)(O)C(=O)N2Cc2cc(OCC)cc(OCC)c2)C[C@@H](O)[C@H](CCCO)[C@@H]1O (stereo partly drawn) [Compound No. 42c, 2α-(3-hydroxypropyl)-1α,25-dihydroxyvitamin D2-26,23-lactam-N-(3,5-diethoxybenzyl)]
	9.8	95.8			C=C1/C(=C\C=C2/CCC[C@]3(C)[C@@H]([C@H](C)CC4CC(C)(O)C(=O)N4Cc4cc(OCC)cc(OCC)c4)CC[C@@H]23)C[C@@H](O)[C@H](OCCCO)[C@@H]1O (stereo partly drawn) [Compound No. 43c, 2α-(3-hydroxypropoxy)-1α,25-dihydroxyvitamin D3-26,23-lactam-N-(3,5-diethoxybenzyl)]
				31	C=C1/C(=C\C=C2/CCC[C@]3(C)[C@@H]([C@H](C)CC4CC(C)(O)C(=O)N4Cc4cc(OCC)cc(OCC)c4)CC[C@@H]23)C[C@@H](O)[C@H](C)[C@@H]1O (stereo partly drawn) [Compound No. 41a, 2α-methyl-1α,25-dihydroxyvitamin D3-26,23-lactam-N-(3,5-diethoxybenzyl)]
16	90.5	27.5	50		C=C1/C(=C\C=C2/CCC[C@]3(C)[C@@H]([C@H](C)CC4CC(C)(O)C(=O)N4CCc4ccccc4)CC[C@@H]23)C[C@@H](O)[C@H](C)[C@@H]1O (stereo partly drawn) [Compound No. 11a, 2α-methyl-1α,25-dihydroxyvitamin D3-26,23-lactam-N-(2-phenethyl)]
52	29.9	83.3	20		C=C1/C(=C\C=C2/CCC[C@]3(C)[C@@H]([C@H](C)C[C@H]4C[C@](C)(O)C(=O)N4CCc4ccccc4)CC[C@@H]23)C[C@@H](O)[C@H](OCCCO)[C@@H]1O [Compound No. 13a, 2α-(3-hydroxypropoxy)-1α,25-dihydroxyvitamin D3-26,23-lactam-N-(2-phenethyl)]
	17.8	52.7		30	C=C1/C(=C\C=C2/CCC[C@]3(C)[C@@H]([C@H](C)CC4CC(C)(O)C(=O)N4Cc4cc(OCC)cc(OCC)c4)CC[C@@H]23)C[C@@H](O)[C@H](C)[C@@H]1O (single isomer, unassigned) [Compound No. 41c, 2α-methyl-1α,25-dihydroxyvitamin D3-26,23-lactam-N-(3,5-diethoxybenzyl)]
